How the values were obtained:
[1] = system: Monocotyledonous and dicotyledonous test plants; assay: Herbicidal action before emergence of the plants (pre-emergence action); type: in vivo; conditions: evaluated after 3 weeks, nine-step scale; for pre-emergence action, Cyperus / pre-emergence action, Ipomoea / pre-emergence action, Setaria / pre-emergence action, Sinapis / pre-emergence action, Solanum / pre-emergence action, Stellaria: 2000 g/ha; for Pre-emergence action, Abutilon / Pre-emergence action, Amaranthus / Pre-emergence action, Chenop. / Pre-emergence action, Digitaria / Pre-emergence action, Echino. / Pre-emergence action, Panicum: 250 g/ha
Procedure: Monocotyledonous and dicotyledonous test plants are sown in standard soil in plastic pots. Immediately after sowing, the test substances as aqueous suspensions (prepared with a 25% wettable powder (Example F3, b) in accordance with WO 97/34485) or as emulsions (prepared with a 25% emulsion concentrate (Example F1, c)) are sprayed on at a rate of 2 kg of a.i./ha or 250 g of a.i./ha (500 l of water/ha). The test plants are then grown in the greenhouse under optimal conditions. After a test period of 3 weeks, the experiment is evaluated with reference to a nine-step scale (1=complete damage, 9=no effect). Score figures of 1 to 4 (in particular 1 to 3) mean a good to very good herbicidal action.

[2] = system: Monocotyledonous and dicotyledonous test plants; assay: Post-emergence herbicidal action; type: in vivo; conditions: evaluated after approximately 18 days; for Post-emergence action, Ipomoea / Post-emergence action, Lolium / Post-emergence action, Setaria / Post-emergence action, Sinapis / Post-emergence action, Solanum / Post-emergence action, Stellaria: 2000 g/ha, sprayed in 4- to 6-leaf stage, nine-step scale; for Post-emergence action: Abutilon (score, nine-step scale) / Post-emergence action: Chenop. (score, nine-step scale) / Post-emergence action: Digitaria (score, nine-step scale) / Post-emergence action: Echino. (score, nine-step scale) / Post-emergence action: Ipopur. (score, nine-step scale) / Post-emergence action: Panicum (score, nine-step scale) / Post-emergence action: Xanth. (score, nine-step scale): 250 g/ha, sprayed at 4- to 6-leaf stage
Procedure: Monocotyledonous and dicotyledonous test plants are grown in the greenhouse in plastic pots containing standard soil, and, in the 4- to 6-leaf stage, sprayed with an aqueous suspension of the test substances of the formula I prepared with a 25% wettable powder (Example F3, b) in accordance with WO 97/34485) or with an emulsion of the test substances of the formula I prepared with a 25% emulsion concentrate (Example F1, c) in accordance with WO 97/34485), corresponding to a rate of 2 kg of a.i./ha or 250 g of a.i./ha (500 l of water/ha). The test plants are subsequently grown on in the greenhouse under optimal conditions. After a test period of approximately 18 days, the test is evaluated with reference to a nine-step scale (1=complete damage, 9=no effect). Score figures of 1 to 4 (in particular 1 to 3) mean a good to very good herbicidal action. In this test, the compounds of the formula I show a potent herbicidal action.

Compound	pre-emergence action, Cyperus [1]	pre-emergence action, Ipomoea [1]	pre-emergence action, Setaria [1]	pre-emergence action, Sinapis [1]	pre-emergence action, Solanum [1]	pre-emergence action, Stellaria [1]	Post-emergence action, Ipomoea [2]	Post-emergence action, Lolium [2]	Post-emergence action, Setaria [2]	Post-emergence action, Sinapis [2]	Post-emergence action, Solanum [2]	Post-emergence action, Stellaria [2]	Post-emergence action: Abutilon (score, nine-step scale) [2]	Post-emergence action: Chenop. (score, nine-step scale) [2]	Post-emergence action: Digitaria (score, nine-step scale) [2]	Post-emergence action: Echino. (score, nine-step scale) [2]	Post-emergence action: Ipopur. (score, nine-step scale) [2]	Post-emergence action: Panicum (score, nine-step scale) [2]	Post-emergence action: Xanth. (score, nine-step scale) [2]	also measured
Cc1nc(C(F)(F)F)ccc1C(=O)C1=C(O)C(C)CC(C)C1=O (stereo not drawn) [A2-B46 (cis)]	1	2	1	2	1	2	1	2	3	1	2	2	–	–	–	–	–	–	–	–
Cc1nc(C(F)(F)F)ccc1C(=O)C1=C(O)C(C)CC(C)C1=O (stereo not drawn) [A2-B46 (trans)]	1	2	1	2	1	2	1	2	2	1	1	2	–	–	–	–	–	–	–	–
COC(=O)C1C(O)=C(C(=O)c2ccc(C(F)(F)F)nc2C)C(=O)CC1C (centres unmarked) [Compound A2-B144]	3	4	2	2	2	4	–	–	–	–	–	–	–	–	–	–	–	–	–	–
Cc1nc(C(F)(F)F)ccc1C(=O)C1=C(O)C(C)(C)OCC1=O [Compound A2-B552]	1	2	2	2	1	2	–	–	–	–	–	–	–	–	–	–	–	–	–	–
COC(=O)C1(OC)CCC(=O)C(C(=O)c2ccc(C(F)(F)F)nc2C)=C1O (centres unmarked) [Compound A2-B1067]	2	3	2	2	3	3	–	–	–	–	–	–	–	–	–	–	–	–	–	–
COCc1nc(C(F)(F)F)ccc1C(=O)C1=C(O)CC(C)(C)CC1=O [Compound A8-B1063]	–	–	–	–	–	–	–	–	–	–	–	–	–	–	–	–	–	–	–	Pre-emergence action, Abutilon [1]: 2; Pre-emergence action, Amaranthus [1]: 4; Pre-emergence action, Chenop. [1]: 1; Pre-emergence action, Digitaria [1]: 3; Pre-emergence action, Echino. [1]: 3; Pre-emergence action, Panicum [1]: 2
COCc1nc(C(F)(F)F)ccc1C(=O)C1=C(O)CC2CCCC2C1=O (centres unmarked) [Compound A8-D36]	–	–	–	–	–	–	–	–	–	–	–	–	2	2	3	2	3	3	3	–
COCc1nc(C(F)(F)F)ccc1C(=O)C1=C(O)C(C)C2CC2C1=O (centres unmarked) [Compound A8-D109]	–	–	–	–	–	–	–	–	–	–	–	–	3	3	3	3	2	3	1	–
CCOC(=O)C1(C)C(O)=C(C(=O)c2ccc(C(F)(F)F)nc2COC)C(=O)C2CC21 (centres unmarked) [Compound A8-D111]	–	–	–	–	–	–	–	–	–	–	–	–	3	3	3	3	2	3	1	–
COCc1nc(C(F)(F)F)ccc1C(=O)C1=C(O)CCC=C(C)C1=O [Compound A8-F5]	–	–	–	–	–	–	–	–	–	–	–	–	3	3	3	4	3	4	3	–
Cc1nc(C(F)(F)C(F)(F)F)ccc1C(=O)C1=C(O)C(C)(C)CCC1=O [Compound A34-B24]	–	–	–	–	–	–	1	2	2	1	2	2	–	–	–	–	–	–	–	–
Cc1nc(C(F)(F)C(F)(F)C(F)(F)F)ccc1C(=O)C1=C(O)CCCC1=O [Compound A64-B1]	–	–	–	–	–	–	2	3	4	1	1	2	–	–	–	–	–	–	–	–
Cc1cc(C(F)(F)F)ncc1C(=O)C1=C(O)C(C)(C)CCC1=O [Compound A531-B24]	–	–	–	–	–	–	2	2	2	1	2	2	–	–	–	–	–	–	–	–
COc1nc(C(F)(F)F)ccc1C(=O)C1=C(O)C(C)(C)CCC1=O [Compound A1022-B24]	–	–	–	–	–	–	–	–	–	–	–	–	–	–	–	–	–	–	–	Pre-emergence action, Abutilon [1]: 3; Pre-emergence action, Amaranthus [1]: 4; Pre-emergence action, Chenop. [1]: 1; Pre-emergence action, Digitaria [1]: 4; Pre-emergence action, Echino. [1]: 4; Pre-emergence action, Panicum [1]: 2
Cc1c(C(=O)C2=C(O)CCCC2=O)ccc(C(F)(F)F)[n+]1[O-] [Compound A1210-B1, 3-Hydroxy-2-(2-methyl-1-oxy-6-trifluoromethylpyridine-3-carbonyl)cyclohex-2-enone]	–	–	–	–	–	–	–	–	–	–	–	–	2	1	2	2	2	2	2	–
